Among the data in patent US7452894B2, “Purine derivatives as purinergic receptor antagonists” (Vernalis Research Limited, priority 2001, dated 2008) are Ki and melting point values, retold here.

Structures are written as SMILES. Like-named read-outs stand apart in the source and are kept apart here.

The target of series [1] is human adenosine A2A receptors (Homo sapiens, UniProt P29274). The experiment in a line: Binding affinities at hA2A receptors, displacement of [3H]-CGS 21680.
Where [2] appears, read: human adenosine A2A receptor, radioligand [3H]-CGS 21680.

Sequence of human adenosine A2A receptors (P29274 whole entry): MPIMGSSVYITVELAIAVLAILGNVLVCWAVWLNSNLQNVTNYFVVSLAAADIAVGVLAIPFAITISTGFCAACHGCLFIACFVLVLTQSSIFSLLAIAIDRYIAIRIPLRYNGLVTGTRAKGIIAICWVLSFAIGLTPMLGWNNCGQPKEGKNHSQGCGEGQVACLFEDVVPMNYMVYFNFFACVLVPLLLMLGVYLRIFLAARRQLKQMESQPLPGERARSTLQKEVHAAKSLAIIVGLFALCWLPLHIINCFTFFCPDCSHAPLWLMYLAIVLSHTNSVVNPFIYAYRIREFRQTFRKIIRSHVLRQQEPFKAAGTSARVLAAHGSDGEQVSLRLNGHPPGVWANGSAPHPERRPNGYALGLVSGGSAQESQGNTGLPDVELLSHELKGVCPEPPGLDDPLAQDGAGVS

On to `CN(C)c1nc(-c2ccco2)c2nc[nH]c2n1` [Example 3, N,N-Dimethyl-6-(2-furyl)-1H-purine-2-amine], for which the inhibition constant (Ki) in series [1] was 23 nM. This counts as double-digit nanomolar.

For the molecule `Nc1nc(-c2ccco2)c2ncn(C(=O)NCc3ccccc3)c2n1` [Example 26, 2-Amino-N-benzyl-6-(2-furyl)-9H-purine-9-carboxamide], the Ki in series [1] (setting [2]) was found to be 1 nM. For `CCCCNC(=O)n1cnc2c(-c3ccco3)nc(N)nc21` [Example 36, 2-Amino-N-n-butyl-6-(2-furyl)-9H-purine-9-carboxamide], the affinity in series [1] corresponds to a Ki of 7 nM. The same measure, in the same setting: with `COc1ccc(CNC(=O)n2cnc3c(-c4ccco4)nc(N)nc32)cc1` [Example 37, 2-Amino-6-(2-furyl)-N-(4-methoxybenzyl)-9H-purine-9-carboxamide] the figure was 4 nM. On to `Cc1ccc(CNC(=O)n2cnc3c(-c4ccco4)nc(N)nc32)cc1` [Example 38, 2-Amino-6-(2-furyl)-N-(4-methylbenzyl)-9H-purine-9-carboxamide], for which affinity in series [1] (setting [2]) was put at a Ki of 1 nM. As for `Nc1nc(-c2ccco2)c2ncn(C(=O)NCc3ccccc3Cl)c2n1` [Example 39, 2-Amino-N-(2-chlorobenzyl)-6-(2-furyl)-9H-purine-9-carboxamide], the Ki in series [1] (setting [2]) turned out to be 1 nM. This lies in the single-digit nanomolar range. The same measure, in the same setting: the same measure for `C[C@H](NC(=O)n1cnc2c(-c3ccco3)nc(N)nc21)c1ccccc1` [Example 45, (1S)-2-Amino-6-(2-furyl)-N-(1-phenyethyl)-9H-purine-9-carboxamide]: 2 nM.

As to `Nc1nc(-c2ccco2)c2ncn(CC(=O)Nc3ccncc3)c2n1` [Example 142, 2-Amino-6-(2-furyl)-N-(4-pyridyl)-9H-purine-9-acetamide], the melting point fell in the range of 281.3 to 283.2 °C. As to `Nc1nc(-c2ccco2)c2ncn(CC(=O)Nc3cccnc3)c2n1` [Example 143, 2-Amino-6-(2-furyl)-N-(3-pyridyl)-9H-purine-9-acetamide], the melting point is 285.6 to 286.4 °C. Regarding `Nc1nc(-c2ccco2)c2ncn(CC(=O)NCc3ccc(Cl)cc3)c2n1` [Example 144, 2-Amino-N-(4-chlorobenzyl)-6-(2-furyl)-9H-purine-9-acetamide], the melting point was 277 °C (dec.). Same read-out and setting: with `CN(Cc1ccccc1)C(=O)Cn1cnc2c(-c3ccco3)nc(N)nc21` [Example 145, 2-Amino-N-benzyl-6-(2-furyl)-N-methyl-9H-purine-9-acetamide] the figure was 224 to 224.1 °C. Take `Cc1ccsc1-c1nc(N)nc2[nH]cnc12` [Example 150, 6-(3-Methyl-2-thienyl)-1H-purine-2-amine]: the melting point was in the range of 247 to 248 °C.

As to `Cc1nc(-c2ccco2)c2nc[nH]c2n1` [Example 153, 6.(2-Furyl)-2-methyl-1H-purine], the melting point is 342 °C (dec.). `COc1ccc(NC(=O)Cn2cnc3c(-c4ccco4)nc(N)nc32)c(C)c1` [Example 169, 2-Amino-6-(2-furyl)-N-(4-methoxy-2-methylphenyl)-9H-purine-9-acetamide]: the melting point was in the range of 287.1 to 288.2 °C. In the case of `Cc1ccc(Cn2cnc3c(-c4ccco4)nc(C#N)nc32)cc1` [Example 173, 6-(2-Furyl)-9-(4-methylbenzyl)-9H-purine-2-carbonitrile], the melting point is 196.5 °C (dec.). `Nc1nc(-c2ccco2)c2ncn(CCN3C(=O)c4ccccc4C3=O)c2n1` [Example 174, 6-(2-Furyl)-9-(2-phthalimidoethyl)-9H-purine-2-amine]: the melting point was 160 °C (dec.). Turning to `N#Cc1cccc(Cn2cnc3c(-c4ccco4)nc(N)nc32)c1` [Example 177, 9-(3-Cyanobenzyl)-6-(2-furyl)-9H-purine-2-amine], the melting point fell in the range of 302.5 to 304.8 °C. Same read-out and setting: the same measure for `Cc1ccc(-c2nc(N)nc3[nH]cnc23)o1` [Example 195, 6-(5-Methyl-2-furyl)-1H-purine-2-amine]: > 190 °C (dec.). Turning to `Nc1nc(-c2ccco2)c2ncn(Cc3ccccc3[N+](=O)[O-])c2n1` [Example 197, 6-(2-Furyl)-9-(2-nitrobenzyl)-9H-purine-2-amine], the melting point was in the range of 290.6 to 290.7 °C.

Molecule `Nc1nc(-c2ccco2)c2ncn(Cc3cccc(F)c3)c2n1` [Example 203, 9-(3-Fluorobenzyl)-6-(2-furyl)-9H-purine-2-amine] displayed a melting point of 218.2 to 218.5 °C. As for `Cc1ccc(-c2nc(N)nc3c2ncn3C(=O)NCc2ccccc2)o1` [Example 204, 2-Amino-N-benzyl-6-(5-methyl-2-furyl)-9H-purine-9-carboxamide], the melting point is 160 °C (dec.). On to `Cn1cncc1-c1nc(N)nc2[nH]cnc12` [Example 209, 6-(1-Methyl-1H-imidazol-5-yl)-1H-purine-2-amine], for which the melting point is 300 °C (dec.). On to `CS(=O)(=O)Nc1ccccc1Cn1cnc2c(-c3ccco3)nc(N)nc21` [Example 210, 6-(2-Furyl)-9-(2-methanesulphonylaminobenzyl)-9H-purine-2-amine], for which the melting point was in the range of 254.7 to 255.3 °C. The same measure, in the same setting: with `COC(=O)c1ccc(Cn2cnc3c(-c4ccco4)nc(N)nc32)cc1` [Example 215, Methyl 4-(2-amino-6-(2-furyl)-9H-purine-9-ylmethyl)benzoate] the figure was 219.5 to 219.7 °C; with `Nc1nc(-c2ccco2)c2ncn(Cc3ccc(C(=O)O)cc3)c2n1` [Example 216, 4-(2-Amino-6-(2-furyl)-9H-purine-9-ylmethyl)benzoic acid], 301.1 to 302.1 °C. In turn, `CS(=O)(=O)Nc1cccc(Cn2cnc3c(-c4ccco4)nc(N)nc32)c1` [Example 217, 6-(2-Furyl)-9-(3-methanesulphonylaminobenzyl)-9H-purine-2-amine] registered a melting point of 171.2 to 171.3 °C. On the same count and under the same terms, the same measure for `Nc1nc(-c2ccco2)c2ncn(CC(=O)NCc3ccco3)c2n1` [Example 218, 2-Amino-6-(2-furyl)-N-(2-furylmethyl)-9H-purine-9-acetamide]: 276.4 to 276.9 °C; for `COc1cc(Cn2cnc3c(-c4ccco4)nc(N)nc32)cc(OC)c1` [Example 219, 9-(3,5-Dimethoxybenzyl)-6-(2-furyl)-9H-purine-2-amine]: 205.3 to 205.4 °C. Same read-out and setting: with `Nc1nc(-c2ccco2)c2ncn(Cc3cccc(C(=O)NCc4ccccc4)c3)c2n1` [Example 226, 3-(2-Amino-6-(2-furyl)-9H-purine-9-ylmethyl)-N-benzylbenzamide] the figure was 243.2 to 243.8 °C; with `Nc1nc(-c2ccco2)c2ncn(Cc3ccc(C(=O)NCc4ccccc4)cc3)c2n1` [Example 227, 4-(2-Amino-6-(2-furyl)-9H-purine-9-ylmethyl)-N-benzylbenzamide], 170 to 171.9 °C. The same measure, in the same setting: with `Cc1noc(C)c1Cn1cnc2c(-c3ccco3)nc(N)nc21` [Example 229, 9-(3,5-Dimethylisoxazol-4-ylmethyl)-6-(2-furyl)-9H-purine-2-amine] the figure was 282.4 to 282.6 °C. In turn, `COc1cccc(NC(=O)Cn2cnc3c(-c4ccco4)nc(N)nc32)c1` [Example 231, 2-Amino-6-(2-furyl)-N-(3-methoxyphenyl)-9H-purine-9-acetamide] showed a melting point of 278.5 to 280.4 °C. For `CN(C)C(=O)c1ccc(Cn2cnc3c(-c4ccco4)nc(N)nc32)cc1` [Example 233, 4-(2-Amino-6-(2-furyl)-9H-purine-9-ylmethyl)-N,N-dimethylbenzamide], the melting point fell in the range of 223.1 to 226.9 °C.

The molecule `COc1ccccc1CNC(=O)Cn1cnc2c(-c3ccco3)nc(N)nc21` [Example 236, 2-Amino-6-(2-furyl)-N-(2-methoxybenzyl)-9H-purine-9-acetamide] yielded a melting point of 279.9 to 281 °C. Molecule `Nc1nc(-c2ccco2)c2ncn(CC(=O)NCc3ccccc3F)c2n1` [Example 237, 2-Amino-N-(2-fluorobenzyl)-6-(2-furyl)-9H-purine9-acetamide] yielded a melting point of 291.9 to 292.1 °C.

As for `Nc1nc(-c2ccco2)c2ncn(Cc3ccccc3NS(=O)(=O)c3cccs3)c2n1` [Example 238, 6-(2-Furyl)-9-(2-(2-thienylsulphonylamino)benzyl)-9H-purine-2-amine], the melting point was 265.6 to 266 °C. The same measure, in the same setting: with `Cc1noc(C)c1S(=O)(=O)Nc1ccccc1Cn1cnc2c(-c3ccco3)nc(N)nc21` [Example 239, 6-(2-Furyl)-9-(2-(3,5-dimethylisoxazol-4-ylsulphonylamino)benzyl)-9H-purine-2-amine] the figure was 251.4 to 253.1 °C. Same read-out and setting: the same measure for `Cc1ccc(-c2nc(N)nc3[nH]cnc23)nc1` [Example 241, 6-(5-Methyl-2-pyridinyl)-1H-purine-2-amine]: 246.2 to 248 °C. The molecule `Cc1ccc(-c2nc(N)nc3c2ncn3Cc2ccccc2F)nc1` [Example 243, 9-(2-Fluorobenzyl)-6-(5-methyl-2-pyridinyl)-9H-purine-2-amine] gave a melting point of 299.8 °C. Still for that read-out and setting: the same measure for `C[C@H](N)Cn1cnc2c(-c3ccco3)nc(N)nc21` [Example 251, (2S)-9-(2-Amino-1-propyl)-6-(2-furyl)-9H-purine-2-amine]: 247 to 252 °C. With `NCCn1cnc2c(-c3ccco3)nc(N)nc21` [Example 257, 9-(2-Aminoethyl)-6-(2-furyl)-9H-purine-2-amine], the melting point was 190 °C (dec.).

In turn, `Nc1nc(-c2ccn[nH]2)c2ncn(Cc3ccccc3F)c2n1` [Example 262, 9-(2-Fluorobenzyl)-6-(1H-pyrazol-3-yl)-9H-purine-2-amine] returned a melting point of 257 to 259 °C.

On to `Nc1nc(-c2cncs2)c2ncn(Cc3ccccc3F)c2n1` [Example 267, 9-(2-Fluorobenzyl)-6-(thiazol-5-yl)-9H-purine-2-amine], for which the melting point is 190.5 to 190.6 °C. The same measure, in the same setting: with `CC(C)(C)OC(=O)n1ccc2c(Cn3cnc4c(-c5ccco5)nc(N)nc43)cccc21` [Example 270, tert-butyl 4-(2-amino-6-(2-furyl)-1H-purine-9-ylmethyl)indole-1-carboxylate] the figure was 190.4 to 190.5 °C; with `Nc1nc(-c2ccco2)c2ncn(Cc3cccc4[nH]ccc34)c2n1` [Example 271, 6-(2-Furyl)-9-(4-indolylmethyl)-9H-purine-2-amine], 305.4 to 306.8 °C.
